Experimental data: the PolyMetriX glass transition set
± gives the standard deviation of the reports.

SMILES | glass transition temperature [°C]
*C(=O)c1ccc(Oc2ccc(C3(c4ccc(Oc5ccc(C(=O)c6ccc7c(c6)C(=O)N(c6ccc(Cc8ccc(N9C(=O)c%10ccc(*)cc%10C9=O)cc8)cc6)C7=O)cc5)cc4)OC(=O)c4ccccc43)cc2)cc1 (repeat unit) | 268.00
*CC(*)(CC(=O)OCC(C)C)C(=O)OCC(C)C (repeat unit) | 125.00
*Oc1ccc(S(=O)(=O)c2ccc(Oc3ccc(/C=C4\CCCC/C(=C\c5ccc(*)cc5)C4=O)cc3)cc2)cc1 (repeat unit) | 186.00
*CCCCNC(=O)c1ccc(C(C)(CC)c2ccc(C(=O)N*)cc2)cc1 (repeat unit) | 182.00
*O[Si](C)(C)O[Si](C)(C)O[Si](C)(C)O[Si](C)(C)O[Si](C)(C)O[Si](C)(C)Oc1c(*)c2ccccc2c2ccccc12 (repeat unit) | -68.00
*O[Si](C)(C)O[Si](C)(C)O[Si](C)(C)O[Si](C)(C)c1cccc([Si](*)(C)C)c1 (repeat unit) | -75.00
*Oc1ccc(S(=O)(=O)c2ccc3ccc(S(=O)(=O)c4ccc(*)cc4)cc3c2)cc1 (repeat unit) | 250.00
*CC(*)(CC(=O)OCCC)C(=O)OCCC (repeat unit) | 46.50
*OC(COC(=O)NCCCCCCNC(*)=O)c1ccco1 (repeat unit) | 17.00
*CC(*)C(=O)Oc1ccc([N+](=O)[O-])cc1 (repeat unit) | 73.30
*Oc1cccc(NC(=O)c2ccc([Si](C)(C)c3ccc(C(*)=O)cc3)cc2)c1 (repeat unit) | 220.00
*CC(*)c1ccc(COCCCC)cc1 (repeat unit) | 10.00
*CC(*)c1cc(C)ccc1C (repeat unit) [Poly(2,5-dimethyl styrene) ] | 143 ± 0.6
*CC(*)c1ccc(S(=O)(=O)OCCC)cc1 (repeat unit) | 217.00
*=Nc1ccc(Oc2ccc(C(c3ccc(Oc4ccc(/N=C5/OC(=O)c6cc7c(cc65)C(=*)OC7=O)cc4)cc3)(C(F)(F)F)C(F)(F)F)cc2)cc1 (repeat unit) | 287.00
*O[Si](*)(C)CCCOCCOCCOCCOC (repeat unit) | -64.21
*CCCCCCCCCCCCOC(=O)NCCCCCCCCCCNC(=O)O* (repeat unit) | 34.00
*CCOCCOC(=O)C(CCCCC)C(=O)O* (repeat unit) | -47.00
*Oc1ccc(Oc2ccc(OC(=O)c3cccc(C(*)=O)c3)cc2)cc1 (repeat unit) | 164.50
*Oc1ccc2cc(OC(=O)c3cccc(Oc4ccc(Oc5cccc(C(*)=O)c5)cc4)c3)ccc2c1 (repeat unit) | 125.00
*Oc1ccc(/C=N/c2ccc(/N=C/c3ccc(Oc4ccc(C(c5ccccc5)(c5ccccc5)c5ccc(*)cc5)cc4)cc3)cc2)cc1 (repeat unit) | 230.00
*Nc1ccc(C2(c3ccc(NC(=O)c4ccc(-c5ccc(C(*)=O)c(C)c5)cc4C)cc3)c3ccccc3-c3ccccc32)cc1 (repeat unit) | 293.00
*NNC(=O)c1ccc(C(*)=O)cc1OCCCCCCCC (repeat unit) | 203.50

SMILES | glass transition temperature [°C]
*CCOC(=O)c1ccccc1C(=O)O* (repeat unit) [Poly(ethylene phthalate)] | 60.17 ± 51
*Nc1cc(NC(=O)Nc2ccc(Cc3ccc(NC(*)=O)cc3)cc2)cc(C(=O)Nc2cccc3c2C(=O)c2ccccc2C3=O)c1 (repeat unit) | 178.00
*CC(*)c1ccccc1COC(C)C (repeat unit) | 88.00
*CCCCCCOC(=O)OCCCCCOC(=O)OCCCCCCOc1ccc(Oc2ccc(O*)cc2)cc1 (repeat unit) | -11.00
*c1ccc(Oc2ccc(C(C)(C)c3ccc(Oc4ccc(-c5nc(*)nc(-c6ccccc6)n5)cc4)cc3)cc2)cc1 (repeat unit) | 228.00
*c1ccc(Oc2ccc(Oc3ccc(N4C(=O)C(c5ccccc5)=C(c5ccc(C6=C(c7ccccc7)C(=O)N(*)C6=O)cc5)C4=O)cc3)cc2)cc1 (repeat unit) | 267.00
*c1ccccc1C(=O)Oc1ccc2c(*)c3ccc(=O)cc-3oc2c1 (repeat unit) | 250.00
*OC1C(COCC)OC(*)C(OCC)C1OCC (repeat unit) | 131.2
*CC(OCC)C(C(=O)OC)C(*)C(=O)OC (repeat unit) | 50.00
*CC(*)(C)C(=O)OCCC#N (repeat unit) | 91.00
*CCCCCCCCCCC(=O)NCCc1ccc(CCNC(=O)CCCCCCCCCCS*)cc1 (repeat unit) | 58.00
*c1ccc(Oc2cccc(Oc3ccc(N4C(=O)c5ccc(Oc6ccc7c(c6)C(=O)N(*)C7=O)cc5C4=O)cc3)c2)cc1 (repeat unit) | 208.2 ± 12
*CC(*)C(=O)OCC (repeat unit) [Poly(ethyl acrylate) ] | -22 ± 2.1
*C(=O)Nc1ccc(NC(=O)c2ccc3c(c2)C(=O)N(c2ccc(S(=O)(=O)c4ccc(N5C(=O)c6ccc(*)cc6C5=O)cc4)cc2)C3=O)cc1 (repeat unit) | 368.00
*Oc1ccc(S(=O)(=O)c2ccc(Oc3c(C)cc(C(c4cc(C)c(*)c(C)c4)(C(F)(F)F)C(F)(F)F)cc3C)cc2[Si](C)(C)C)c([Si](C)(C)C)c1 (repeat unit) | 197.00
*OP(=O)(Oc1cccc2c(*)cccc12)OC1CCCCC1 (repeat unit) | 134.00
*CCOCCOCCN1C(=O)c2ccc(C(=O)Oc3ccc(C(C)(C)c4ccc(OC(=O)c5ccc6c(c5)C(=O)N(*)C6=O)cc4)cc3)cc2C1=O (repeat unit) | 118.00
*/C=C/C(C)C(*)C(=O)OCCN(C)c1ccc(N(C)C)cc1 (repeat unit) | 20.50
*C(=O)Oc1ccc(C(C)(C)c2ccc(OC(=O)c3ccc4c(c3)C(=O)N(c3ccc(-c5ccc(N6C(=O)c7ccc(*)cc7C6=O)cc5C)c(C)c3)C4=O)cc2)cc1 (repeat unit) | 166.00
*Nc1cc(NC(=O)c2ccc(C(*)=O)cc2)cc(C(=O)Oc2ccccc2)c1 (repeat unit) | 200.00
*CC(O)COc1ccc(O*)cc1 (repeat unit) | 60.00
*O[Si](C=C)(C=C)O[Si](C)(C)c1ccc([Si](*)(C)C)cc1 (repeat unit) | -71.00
*C/C=C/C[Si](*)(c1ccccc1)c1ccccc1 (repeat unit) | 34.90

SMILES | glass transition temperature [°C]
*Oc1ccc(/N=C/CCC/C=N/c2ccc(OC(=O)Nc3ccc(Cc4ccc(NC(*)=O)cc4)cc3)cc2)cc1 (repeat unit) | 76.00
*Oc1ccc(NC(=O)c2cc(NC(=O)C34CC5CC(CC(C5)C3)C4)cc(C(=O)Nc3ccc(*)cc3)c2)cc1 (repeat unit) | 335.00
*C1C(=O)N(C(C)CC)C(=O)C1* (repeat unit) | 205.00
*C(=O)OCCCCCCCCCCOC(=O)c1ccc(NC(=O)c2ccc(N3C(=O)c4ccc(*)cc4C3=O)cc2)cc1 (repeat unit) | 102.00
*Oc1ccc(C(c2ccc(OC(=O)c3ccccc3-c3ccccc3C(*)=O)cc2)(C(F)(F)F)C(F)(F)F)cc1 (repeat unit) | 162.00
*CCNC(=O)c1ccc([Si](CCCC)(CCCC)c2ccc(C(=O)NCCN(*)c3ccc(/C=C/c4ccc([N+](=O)[O-])cc4)cc3)cc2)cc1 (repeat unit) | 115.00
*OC(=O)c1ccc(C(C)(C)c2ccc(C(*)=O)cc2)cc1 (repeat unit) | 100.00
*Oc1ccc(OC(=O)c2ccc(OCCCCCCCCOc3ccc(C(*)=O)cc3)cc2)cc1C(=O)CC (repeat unit) | 70.00
*c1ccc(C(c2ccccc2)c2ccc(N3C(=O)c4ccc(S(=O)(=O)c5ccc6c(c5)C(=O)N(*)C6=O)cc4C3=O)cc2)cc1 (repeat unit) | 305.00
*Nc1ccc(Cc2ccc(NC(=O)c3cc(NC(=O)c4ccc(NC(=O)C(CC(C)C)N5C(=O)c6ccccc6C5=O)cc4)cc(C(*)=O)c3)cc2)cc1 (repeat unit) | 238.00
*c1ccc(OCCCCCCCCCCCOC(=O)CCCCC(=O)OCCCCCCCCCCCOc2ccc(-c3nnc(*)s3)cc2)cc1 (repeat unit) | 69.00
*c1cc(C)c(/N=C/c2ccc(OCc3ccc(COc4ccc(/C=N/c5cc(C)c(N6C(=O)c7ccc8c9ccc%10c%11c(ccc(c%12ccc(c7c8%12)C6=O)c%119)C(=O)N(*)C%10=O)cc5C)cc4)cc3)cc2)cc1C (repeat unit) | 130.00
*CCC(=O)N* (repeat unit) [Poly(propano-3-lactam)] | 128.17 ± 24
*Oc1ccc(NC(=O)c2cccc(C(=O)Nc3ccc(*)cc3)c2)cc1 (repeat unit) | 264.00
*c1ccc(-c2ccc3c(c2)C(CCCCCCCC)(CCCCCCCC)c2cc(*)ccc2-3)c(F)c1 (repeat unit) | 34.00
*CCOC(=O)CCCCC(=O)O* (repeat unit) [Poly(ethylene adipate)] | -48.83 ± 8
*CC(*)C(=O)NC(C)C (repeat unit) [Poly(N-isopropyl acrylamide)] | 85.2 ± 56
*CC(*)(CC(=O)O)C(=O)O (repeat unit) | 141.00
*c1ccc2c(c1)C(=O)N(c1ccc(Oc3ccc(-c4ccc(Oc5ccc(N6C(=O)c7ccc(C(*)(C(F)(F)F)C(F)(F)F)cc7C6=O)cc5)cc4)cc3)cc1)C2=O (repeat unit) | 288.00
*Oc1cccc(NC(=O)c2ccc(Oc3ccc(C(C)(C)c4cccc(C(C)(C)c5ccc(Oc6ccc(C(=O)Nc7ccc(*)cc7)cc6)cc5)c4)cc3)cc2)c1 (repeat unit) | 147.00
*c1ccc(Oc2ccc(Oc3ccc(-n4c(=O)c5cc6c(=O)n(*)c(=O)c6cc5c4=O)cc3)cc2)cc1 (repeat unit) | 292.00 ± 28
*Oc1ccc(C(CC)c2ccc(OC(*)=S)cc2)cc1 (repeat unit) | 104.00
